Patent US20150175599A1, “FAAH Inhibitors” (Ironwood Pharmaceuticals, Inc., priority 2010, published 2015)

molecular target: T1, FAAH (Rattus norvegicus, UniProt P97612); test: FAAH inhibition, rat brain membrane homogenate assay; type: biochemical; conditions: rat brain homogenate; average activity; read-out: Rat Brain Extract FAAH IC50
T1 construct: For the assay of FAAH activity in rat brain membrane (RBM) homogenates; tissue Charles River (animals); host or cells: rat whole brain, membrane fraction
T1 sequence (P97612 1-579): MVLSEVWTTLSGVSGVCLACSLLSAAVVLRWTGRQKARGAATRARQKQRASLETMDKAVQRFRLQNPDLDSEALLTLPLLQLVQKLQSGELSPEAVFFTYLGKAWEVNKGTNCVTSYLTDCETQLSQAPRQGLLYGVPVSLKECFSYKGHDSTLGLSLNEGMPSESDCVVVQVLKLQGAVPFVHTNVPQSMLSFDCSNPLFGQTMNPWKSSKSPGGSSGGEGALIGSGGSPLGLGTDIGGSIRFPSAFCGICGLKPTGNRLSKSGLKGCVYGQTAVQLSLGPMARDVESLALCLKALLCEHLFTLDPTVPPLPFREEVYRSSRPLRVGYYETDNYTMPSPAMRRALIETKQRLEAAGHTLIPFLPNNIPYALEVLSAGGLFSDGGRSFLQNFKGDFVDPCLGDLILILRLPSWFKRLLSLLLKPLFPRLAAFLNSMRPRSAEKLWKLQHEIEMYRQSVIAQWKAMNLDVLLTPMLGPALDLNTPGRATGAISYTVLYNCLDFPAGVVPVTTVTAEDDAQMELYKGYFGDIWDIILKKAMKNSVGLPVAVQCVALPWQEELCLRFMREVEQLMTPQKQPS
Experimental: Adult rats (Charles River CD strain, female, 200 g) were anaesthetized with isofluorane and rapidly decapitated. Each brain was quickly removed and chilled in tubes (3 brains per tube) on ice. About 25 mL of “homogenization buffer” (20 mM HEPES buffer, pH 7.0, with 1 mM MgCl2) was added to 15 to 20 g of brain. The brains were homogenized on ice for 1 minute using an Omni GLH homogenizer (Omni International, Marietta, Ga.). The homogenates were then transferred to three centrifuge tubes and centrifuged at 36,500 g for 20 minutes at 4° C. The supernatant was discarded and each pellet was re-suspended in 25 mL homogenization buffer. The re-suspended material was again centrifuged (36,500 g, 20 minutes at 4° C.). Pellets were combined by re-suspension in 10 mL of homogenization buffer and incubated in a 37° C. water bath for 15 minutes. The tubes were then placed on ice for 5 minutes followed by centrifugation at 36,500 g for 20 minutes at 4° C. The supernatant was discarded and the membrane pellets were then re-suspended in 40 mL of “re-suspension buffer” (50 mM Tris-HCl buffer, pH 7.4, containing 1 mM EDTA and 3 mM MgCl2). A Bradford Protein assay was performed to determine protein concentration. The protein was aliquotted into screw cap Cryo tubes each containing −400 μL, flash-frozen in liquid nitrogen and stored at −80° C. until used for the assay. A similar protocol was used to obtain brain membrane homogenates from mice
FAAH activity was assayed in the respective homogenates described herein (Rat brain, Mouse brain or Human brain) with certain of the exemplary compounds described above using a modification of the method of Omeir et al. (1995 Life Sci. 56:1999) and Fowler et al. (1997 J. Pharmacol. Exp. Ther. 283:729). For the assay of FAAH activity in rat brain membrane (RBM) homogenates, RBM homogenates (7 μg protein in 20 μL final volume of 10 mM Tris pH 6.5) were mixed with 180 μL of a mixture of the following: […] unlabelled anandamide (AEA), 0.03 Ci radio labeled anandamide [ethanolamine 1-^3H](40-60 Ci/mmol; product number ART-626, American Radiolabelled Chemicals, St. Louis, Mo.), 1 mg/mL Bovine Serum Albumin (fatty acid-free BSA, electrophoresis grade, Sigma, St. Louis, Mo.), 10 mM Tris-HCl (pH 6.5), and 1 mM EDTA in the presence and absence of test compounds (vehicle was DMSO at a final concentration of 1%) and incubated for 10 minutes at 37° C. Samples were placed on ice to terminate the reactions.
The ^3H-ethanolamine product and un-reacted ^3H-anandamide substrate were then separated by either: (1) using chloroform/methanol extraction or (2) passing the reaction mixture through a glass fiber filter containing activated charcoal. Samples were extracted with chloroform/methanol by adding 0.4 mL of chloroform/methanol (1:1 v/v), vigorously mixing the samples, and separating the aqueous and organic phases by centrifugation. Radioactivity (corresponding to FAAH-catalyzed breakdown of ^3H-anandamide) found in aliquots (0.2 mL) of the aqueous phase was determined by liquid scintillation counting with quench correction. IC50 values were determined as described by Jonsson et al. (2001 Br. J Pharmacol. 133:1263). Alternatively, reactions were purified using a modification of the solid-phase extraction method described by Wilson et al (2003 Anal. Biochem. 318: 270). This method was modified as follows: after reactions were incubated at 37° C. for 10 minutes and chilled on ice, the reaction mixtures were acidified by adding 10 μL of sodium phosphate solution[0.5M (pH 2.0)]. Next, 90 μL aliquots of the acidified reaction mixtures were applied to activated charcoal (that had been previously washed with methanol as described by Wilson et al. (supra)) containing 80 μL of water on top of a glass fiber filter, centrifuged, and the radioactivity in the eluate was counted as described previously by Wilson et al. (supra). […]

Compound | IC50
CNCc1ccc2c(c1)c(C(=O)C(=O)Nc1ccnc(OC)c1)c(C)n2Cc1ccc(Cl)cc1 [Compound 25, 2-(1-(4-chlorobenzyl)-2-methyl-5-((methylamino)methyl)-1H-indol-3-yl)-N-(2-methoxypyridin-4-yl)-2-oxoacetamide] | 1000 to 10000 nM
COc1cc(NC(=O)C(=O)c2c(C)n(Cc3ccc(Cl)cc3)c3ccc(CN(C)C)cc23)ccn1 [Compound 26, 2-(1-(4-chlorobenzyl)-5-((dimethylamino)methyl)-2-methyl-1H-indol-3-yl)-N-(2-methoxypyridin-4-yl)-2-oxoacetamide] | 100 to 1000 nM
C=Cc1ccc2c(c1)c(C(=O)C(=O)Nc1ccnc(OC)c1)c(C)n2Cc1ccc(Cl)cc1 [Compound 27, 2-(1-(4-chlorobenzyl)-2-methyl-5-vinyl-1H-indol-3-yl)-N-(2-methoxypyridin-4-yl)-2-oxoacetamide] | < 100 nM
COc1cnc2c(c1)c(C(=O)C(=O)Nc1ccnc(OC)c1)c(C)n2Cc1ncc(Cl)cc1Cl [Compound 29, 2-(1-((3,5-dichloropyridin-2-yl)methyl)-5-methoxy-2-methyl-1H-pyrrolo[2,3-b]pyridin-3-yl)-N-(2-methoxypyridin-4-yl)-2-oxoacetamide] | < 100 nM
COc1cc(NC(=O)C(=O)c2c(C)n(Cc3ncc(Cl)cc3Cl)c3ccc(C)cc23)ccn1 [Compound 30, 2-(1-((3,5-dichloropyridin-2-yl)methyl)-2,5-dimethyl-1H-indol-3-yl)-N-(2-methoxypyridin-4-yl)-2-oxoacetamide] | < 100 nM
COc1cc(NC(=O)C(=O)c2c(C)n(Cc3ncc(Cl)cc3Cl)c3ccccc23)ccn1 [Compound 31, 2-(1-((3,5-dichloropyridin-2-yl)methyl)-2-methyl-1H-indol-3-yl)-N-(2-methoxypyridin-4-yl)-2-oxoacetamide] | < 100 nM
COc1ccc(Cn2c(C)c(C(=O)C(=O)Nc3ccnc(OC)c3)c3cc(OC)c(F)cc32)nc1 [Compound 32, 2-(6-fluoro-5-methoxy-1-((5-methoxypyridin-2-yl)methyl)-2-methyl-1H-indol-3-yl)-N-(2-methoxypyridin-4-yl)-2-oxoacetamide] | < 100 nM
COc1cc(NC(=O)C(=O)c2c(C)n(Cc3ncc(Cl)cc3F)c3ccc(C)cc23)ccn1 [Compound 33, 2-(1-((5-chloro-3-fluoropyridin-2-yl)methyl)-2,5-dimethyl-1H-indol-3-yl)-N-(2-methoxypyridin-4-yl)-2-oxoacetamide] | < 100 nM
COc1cnc2c(c1)c(C(=O)C(=O)Nc1ccnc(OC)c1)c(C)n2Cc1ncc(Cl)cc1F [Compound 34, 2-(1-((5-chloro-3-fluoropyridin-2-yl)methyl)-5-methoxy-2-methyl-1H-pyrrolo[2,3-b]pyridin-3-yl)-N-(2-methoxypyridin-4-yl)-2-oxoacetamide] | < 100 nM
COc1cc(NC(=O)C(=O)c2c(C)n(Cc3ccc(Cl)cc3)c3cnccc23)ccn1 [Compound 35, 2-(1-(4-chlorobenzyl)-2-methyl-1H-pyrrolo[2,3-c]pyridin-3-yl)-N-(2-methoxypyridin-4-yl)-2-oxoacetamide] | 100 to 1000 nM
COc1cc(NC(=O)C(=O)c2c(C)n(Cc3ccc(Cl)cc3)c3ccc(OC)nc23)ccn1 [Compound 36, 2-(1-(4-chlorobenzyl)-5-methoxy-2-methyl-1H-pyrrolo[3,2-b]pyridin-3-yl)-N-(2-methoxypyridin-4-yl)-2-oxoacetamide] | < 100 nM
COc1cc(NC(=O)C(=O)c2c(C)n(Cc3ccc(Cl)cc3)c3ccncc23)ccn1 [Compound 37, 2-(1-(4-chlorobenzyl)-2-methyl-1H-pyrrolo[3,2-c]pyridin-3-yl)-N-(2-methoxypyridin-4-yl)-2-oxoacetamide] | < 100 nM
COc1cnc2c(c1)c(C(=O)C(=O)Nc1ccnc(OC)c1)c(C)n2Cc1ccc(Cl)cc1 [Compound 38, 2-(1-(4-chlorobenzyl)-5-methoxy-2-methyl-1H-pyrrolo[2,3-b]pyridin-3-yl)-N-(2-methoxypyridin-4-yl)-2-oxoacetamide] | < 100 nM
COc1ccc2c(c1)c(C(=O)C(=O)Nc1ccnc(OC)c1)c(C)n2Cc1ccc(S(C)(=O)=O)cc1 [Compound 39, 2-(5-methoxy-2-methyl-1-(4-(methylsulfonyl)benzyl)-1H-indol-3-yl)-N-(2-methoxypyridin-4-yl)-2-oxoacetamide] | 1000 to 10000 nM
COc1ccc(Cn2c(C)c(C(=O)C(=O)Nc3ccnc(OC)c3)c3cc(OC)cnc32)nc1 [Compound 40, 2-(5-methoxy-1-((5-methoxypyridin-2-yl)methyl)-2-methyl-1H-pyrrolo[2,3-b]pyridin-3-yl)-N-(2-methoxypyridin-4-yl)-2-oxoacetamide] | < 100 nM
COc1cnc2c(c1)c(C(=O)C(=O)Nc1ccnc(OC)c1)c(C)n2Cc1ccc(Cl)cn1 [Compound 41, 2-(1-((5-chloropyridin-2-yl)methyl)-5-methoxy-2-methyl-1H-pyrrolo[2,3-b]pyridin-3-yl)-N-(2-methoxypyridin-4-yl)-2-oxoacetamide] | < 100 nM
COc1cnc2c(c1)c(C(=O)C(=O)Nc1ccnc(OC)c1)c(C)n2Cc1ccc(Cl)cc1Cl [Compound 42, 2-(1-(2,4-dichlorobenzyl)-5-methoxy-2-methyl-1H-pyrrolo[2,3-b]pyridin-3-yl)-N-(2-methoxypyridin-4-yl)-2-oxoacetamide] | < 100 nM
COc1ccc(Cn2c(C)c(C(=O)C(=O)Nc3ccnc(OC)c3)c3cc(OC)ccc32)nc1 [Compound 43, 2-(5-methoxy-1-((5-methoxypyridin-2-yl)methyl)-2-methyl-1H-indol-3-yl)-N-(2-methoxypyridin-4-yl)-2-oxoacetamide] | < 100 nM
COc1cc(NC(=O)C(=O)c2c(C)n(Cc3ccc(Cl)cc3)c3cc(OC)c(OC)cc23)ccn1 [Compound 44, 2-(1-(4-chlorobenzyl)-5,6-dimethoxy-2-methyl-1H-indol-3-yl)-N-(2-methoxypyridin-4-yl)-2-oxoacetamide] | < 100 nM
COc1cc(NC(=O)C(=O)c2c(C)n(Cc3ccc(Cl)cc3)c3cccc(OC)c23)ccn1 [Compound 45, 2-(1-(4-chlorobenzyl)-4-methoxy-2-methyl-1H-indol-3-yl)-N-(2-methoxypyridin-4-yl)-2-oxoacetamide] | < 100 nM
COc1ccc2c(c1)c(C(=O)C(=O)Nc1ccnc(OC)n1)c(C)n2Cc1ccc(Cl)cc1 [Compound 46, 2-(1-(4-chlorobenzyl)-5-methoxy-2-methyl-1H-indol-3-yl)-N-(2-methoxypyrimidin-4-yl)-2-oxoacetamide] | < 100 nM
